Values joined by “and” are separate entries in the source; they are usually repeats but may differ in a detail not shown here. Equal values may be shown once. Numbers after ± are expanded uncertainties.
Settings: Liquid; for mass density: Vibrating tube method; for electrical conductivity: electrochemical impedance spectroscopy

CCCCC[P+](CC)(CC)CC.O=S(=O)([N-]S(=O)(=O)C(F)(F)F)C(F)(F)F
mass density (323.15 K, 5000 kPa): 1286.05 ± 1.3 kg/m3
electrical conductivity (323.15 K, 5900 kPa, Frequency=0 MHz): 0.411 ± 0.0082 S/m
mass density (323.15 K, 10000 kPa): 1289.93 ± 1.3 kg/m3
viscosity (323.15 K, 10600 kPa, Falling or rolling sphere viscometry): 33.85 ± 0.81 mPa·s
electrical conductivity (323.15 K, 10600 kPa, Frequency=0 MHz): 0.393 ± 0.0079 S/m
mass density (323.15 K, 15000 kPa): 1293.65 ± 1.3 kg/m3
mass density (323.15 K, 20000 kPa): 1297.31 ± 1.4 kg/m3
viscosity (323.15 K, 20500 kPa, Falling or rolling sphere viscometry): 37.97 ± 0.91 mPa·s
mass density (323.15 K, 25000 kPa): 1300.84 ± 1.4 kg/m3
mass density (323.15 K, 30000 kPa): 1304.31 ± 1.4 kg/m3
viscosity (323.15 K, 30600 kPa, Falling or rolling sphere viscometry): 42.53 ± 1 mPa·s
mass density (323.15 K, 35000 kPa): 1307.72 ± 1.5 kg/m3
mass density (323.15 K, 40000 kPa): 1311.03 ± 1.5 kg/m3
viscosity (323.15 K, 40300 kPa, Falling or rolling sphere viscometry): 47.23 ± 1.1 mPa·s
mass density (323.15 K, 45000 kPa): 1314.23 ± 1.5 kg/m3
mass density (323.15 K, 50000 kPa): 1317.43 ± 1.6 kg/m3
viscosity (323.15 K, 50500 kPa, Falling or rolling sphere viscometry): 52.72 ± 1.2 mPa·s
viscosity (323.15 K, 60300 kPa, Falling or rolling sphere viscometry): 58.3 ± 1.4 mPa·s
electrical conductivity (323.15 K, 77000 kPa, Frequency=0 MHz): 0.211 ± 0.0042 S/m
viscosity (323.15 K, 80500 kPa, Falling or rolling sphere viscometry): 71.43 ± 1.8 mPa·s
viscosity (323.15 K, 100200 kPa, Falling or rolling sphere viscometry): 86.46 ± 2.4 mPa·s
viscosity (323.15 K, 120600 kPa, Falling or rolling sphere viscometry): 104.7 ± 3.4 mPa·s
electrical conductivity (323.15 K, 126900 kPa, Frequency=0 MHz): 0.138 ± 0.0028 S/m
viscosity (323.15 K, 140600 kPa, Falling or rolling sphere viscometry): 125.7 ± 4.6 mPa·s
viscosity (323.15 K, 160500 kPa, Falling or rolling sphere viscometry): 149.6 ± 6 mPa·s
viscosity (323.15 K, 180500 kPa, Falling or rolling sphere viscometry): 178.5 ± 8 mPa·s
viscosity (323.15 K, 200300 kPa, Falling or rolling sphere viscometry): 210.1 ± 10 mPa·s
electrical conductivity (323.15 K, 201300 kPa, Frequency=0 MHz): 0.0751 ± 0.0015 S/m
viscosity (323.15 K, 210900 kPa, Falling or rolling sphere viscometry): 232.2 ± 12 mPa·s
electrical conductivity (323.15 K, 225200 kPa, Frequency=0 MHz): 0.0625 ± 0.0013 S/m
electrical conductivity (323.15 K, 250100 kPa, Frequency=0 MHz): 0.0517 ± 0.001 S/m
electrical conductivity (323.16 K, 14400 kPa, Frequency=0 MHz): 0.378 ± 0.0076 S/m
electrical conductivity (323.16 K, 20500 kPa, Frequency=0 MHz): 0.356 ± 0.0071 S/m
electrical conductivity (323.16 K, 25800 kPa, Frequency=0 MHz): 0.338 ± 0.0068 S/m
electrical conductivity (323.16 K, 30200 kPa, Frequency=0 MHz): 0.324 ± 0.0065 S/m
electrical conductivity (323.16 K, 40000 kPa, Frequency=0 MHz): 0.295 ± 0.0059 S/m
electrical conductivity (323.16 K, 49900 kPa, Frequency=0 MHz): 0.269 ± 0.0054 S/m
electrical conductivity (328.15 K, 101.33 kPa): 0.515 S/m and 0.516 S/m
viscosity (333.15 K, 100 kPa, Concentric cylinders viscometry): 21.51 ± 0.49 mPa·s
viscosity (333.15 K, 100 kPa, Falling or rolling sphere viscometry): 21.43 ± 0.76 mPa·s [middle of 4 runs]
mass density (333.15 K, 100 kPa): 1273.44 ± 1.8 kg/m3 [middle of 6 runs]
electrical conductivity (333.15 K, 101.33 kPa): 0.598 S/m and 0.6 S/m
viscosity (333.15 K, 700 kPa, Falling or rolling sphere viscometry): 21.55 ± 0.51 mPa·s
mass density (333.15 K, 1000 kPa): 1274.41 ± 1.3 kg/m3
mass density (333.15 K, 5000 kPa): 1277.68 ± 1.3 kg/m3
mass density (333.15 K, 10000 kPa): 1281.66 ± 1.3 kg/m3
viscosity (333.15 K, 10400 kPa, Falling or rolling sphere viscometry): 23.8 ± 0.57 mPa·s
viscosity (333.15 K, 10600 kPa, Falling or rolling sphere viscometry): 24.11 ± 0.57 mPa·s
mass density (333.15 K, 15000 kPa): 1285.53 ± 1.3 kg/m3
viscosity (333.15 K, 19700 kPa, Falling or rolling sphere viscometry): 26.33 ± 1.7 mPa·s
mass density (333.15 K, 20000 kPa): 1289.3 ± 1.4 kg/m3
viscosity (333.15 K, 20300 kPa, Falling or rolling sphere viscometry): 26.81 ± 1.7 mPa·s
mass density (333.15 K, 25000 kPa): 1292.91 ± 1.4 kg/m3
mass density (333.15 K, 30000 kPa): 1296.47 ± 1.4 kg/m3
viscosity (333.15 K, 30600 kPa, Falling or rolling sphere viscometry): 29.93 ± 0.71 mPa·s and 29.71 ± 0.71 mPa·s
mass density (333.15 K, 35000 kPa): 1299.98 ± 1.4 kg/m3
mass density (333.15 K, 40000 kPa): 1303.38 ± 1.5 kg/m3
viscosity (333.15 K, 40300 kPa, Falling or rolling sphere viscometry): 32.65 ± 0.78 mPa·s
viscosity (333.15 K, 40600 kPa, Falling or rolling sphere viscometry): 33.21 ± 0.79 mPa·s
mass density (333.15 K, 45000 kPa): 1306.68 ± 1.5 kg/m3
mass density (333.15 K, 50000 kPa): 1309.96 ± 1.6 kg/m3
viscosity (333.15 K, 50400 kPa, Falling or rolling sphere viscometry): 36.22 ± 0.86 mPa·s
viscosity (333.15 K, 50600 kPa, Falling or rolling sphere viscometry): 36.73 ± 0.87 mPa·s
viscosity (333.15 K, 60500 kPa, Falling or rolling sphere viscometry): 40.1 ± 0.95 mPa·s
viscosity (333.15 K, 60600 kPa, Falling or rolling sphere viscometry): 40.52 ± 0.96 mPa·s
viscosity (333.15 K, 80200 kPa, Falling or rolling sphere viscometry): 48.82 ± 1.2 mPa·s
viscosity (333.15 K, 99600 kPa, Falling or rolling sphere viscometry): 58.36 ± 1.4 mPa·s
electrical conductivity (338.15 K, 101.33 kPa): 0.687 S/m and 0.689 S/m
viscosity (343.15 K, 100 kPa, Concentric cylinders viscometry): 15.99 ± 0.36 mPa·s
viscosity (343.15 K, 100 kPa, Falling or rolling sphere viscometry): 15.89 ± 0.38 mPa·s and 15.97 ± 0.38 mPa·s
mass density (343.15 K, 100 kPa): 1264.95 ± 1.8 kg/m3 [middle of 6 runs]
electrical conductivity (343.15 K, 101.33 kPa): 0.784 S/m and 0.786 S/m
mass density (343.15 K, 1000 kPa): 1265.61 ± 1.3 kg/m3
mass density (343.15 K, 5000 kPa): 1269.03 ± 1.3 kg/m3
mass density (343.15 K, 10000 kPa): 1273.12 ± 1.3 kg/m3
mass density (343.15 K, 15000 kPa): 1277.12 ± 1.3 kg/m3
mass density (343.15 K, 20000 kPa): 1280.98 ± 1.4 kg/m3
mass density (343.15 K, 25000 kPa): 1284.76 ± 1.4 kg/m3
mass density (343.15 K, 30000 kPa): 1288.39 ± 1.4 kg/m3
mass density (343.15 K, 35000 kPa): 1291.99 ± 1.4 kg/m3
mass density (343.15 K, 40000 kPa): 1295.5 ± 1.5 kg/m3

— the NIST ThermoML archive (doi:10.1021/acs.jced.8b00011)
